The assay deals with c-myc in 22RV-1 cells. The experiment in a line: Human c-myc ELISA assay. It is filed as cell-based. Particulars: Homo sapiens; for Emax: 22Rv1, 18 h, read-out: Degradation of BRD4: Maximum inhibition (%) c-Myc ELISA in 22RV1 cells; for DC50: 22Rv1, read-out: Degradation of BRD4: DC50 (uM) c-Myc ELISA in 22RV1 cells. As for the experimental part: 22RV-1 cells are seeded at 30,000 cells/well at a volume of 75 μL/well in RPMI+10% FBS media in 96-well plates and grown overnight at 37 C. Cells are dosed with compounds at 4× concentration diluted in 0.4% DMSO; compounds are serially diluted 1:3 for 8-point dose curve. 25 ul of compounds is added to cells for a final concentration starting at 300 nM-0.3 nM or 1 uM-1 nM in 0.1% DMSO and incubated for 18 hrs. Media is aspirated, cells washed 1× with PBS and aspirated. Cells are lysed in 50 ul RIPA buffer (50 mM Tris pH8, 150 mM NaCl, 1% Tx-100, 0.1% SDS, 0.5% sodium deoxycholate) supplemented with protease and phosphatase inhibitors. Plates are incubated on ice for 15 minutes then centrifuged at 4 C for 10 min at 4000 rpm. Add 50 ul of cleared lysate from 96-well assay plate into 96-well c-myc ELISA plate (Novex, Life Technologies Catalog #KH02041). Reconstitute c-myc standard with standard diluent buffer; standard curve range is 333 pg/ml-0 pg/ml, diluted 1:2 for 8-point dose curve. The rest of the assay was performed following the protocol from the c-myc ELISA kit. Data is analyzed and plotted using GraphPad Prism software. Compounds described in this application were assayed and c-myc suppression potency is listed in the following Table (A: DC50<10 nM; B: DC50 10-100 nM; C: DC50: 100-1000 nM; D: DC50>1000 nM)
Background: In an ELISA, binding on a coated surface is turned into a signal by an enzyme label.

For 17 compounds, Emax and DC50 results are on record in US11554171B2, “Compounds and methods for the targeted degradation of bromodomain-containing proteins” (Arvinas Operations, Inc., priority 2015, dated 2023).

As a reminder, the DC50 is the concentration at which degradation of the target reaches its halfway point. Take `Cc1ncsc1-c1ccc([C@H](C)NC(=O)[C@@H]2C[C@@H](O)CN2C(=O)[C@H](C(C)C)n2cc(-c3ccc(N4CC(NC(=O)C[C@@H]5N=C(c6ccc(Cl)cc6)c6c(sc(C)c6C)-n6c(C)nnc65)C4)nc3)cn2)cc1` [Example 265]: the Emax came out at 95.9% and the DC50 lay in the range of 0.01 to 0.1 µM.
Taken in the same sequence, the figures for `Cc1ncsc1-c1ccc([C@H](C)NC(=O)[C@@H]2C[C@@H](O)CN2C(=O)[C@@H](NC(=O)c2ccc(OCCCNC(=O)C[C@@H]3N=C(c4ccc(Cl)cc4)c4c(sc(C)c4C)-n4c(C)nnc43)cc2)C(C)(C)C)cc1` [Example 132, (2S,4R)-1-[(2S)-2-{[4-(3-{2-[(9S)-7-(4-chlorophenyl)-4,5,13-trimethyl-3-thia-1,8,11,12-tetraazatricyclo[8.3.0.0^2,^6]trideca-2(6),4,7,10,12-pentaen-9-yl]acetamido}propoxy)phenyl]formamido}-3,3-dimethylbutanoyl]-4-hydroxy-N-[(1S)-1-[4-(4-methyl-1,3-thiazol-5-yl)phenyl]ethyl]pyrrolidine-2-carboxamide] were 99% and below 0.01 µM.
Taken in the same sequence, the figures for `Cc1ncsc1-c1ccc([C@H](C)NC(=O)[C@@H]2C[C@@H](O)CN2C(=O)[C@@H](NC(=O)CCc2cccc(OCCNC(=O)C[C@@H]3N=C(c4ccc(Cl)cc4)c4c(sc(C)c4C)-n4c(C)nnc43)c2)C(C)(C)C)cc1` [Example 85] were 100% and below 0.01 µM.
Taken in the same sequence, the figures for `Cc1ncsc1-c1ccc([C@H](C)NC(=O)[C@@H]2C[C@@H](O)CN2C(=O)[C@@H](NC(=O)c2cc3cc(O[C@@H](C)CNC(=O)C[C@@H]4N=C(c5ccc(Cl)cc5)c5c(sc(C)c5C)-n5c(C)nnc54)ccc3o2)C(C)(C)C)cc1` [Example 205, (2S,4R)-1-[(2S)-2-[(5-{[(2S)-1-{2-[(9S)-7-(4-chlorophenyl)-4,5,13-trimethyl-3-thia-1,8,11,12-tetraazatricyclo[8.3.0.0^2,^6]trideca-2(6),4,7,10,12-pentaen-9-yl]acetamido}propan-2-yl]oxy}-1-benzofuran-2-yl)formamido]-3,3-dimethylbutanoyl]-4-hydroxy-N-[(1S)-1-[4-(4-methyl-1,3-thiazol-5-yl)phenyl]ethyl]pyrrolidine-2-carboxamide] were 91% and below 0.01 µM.
For the compound `Cc1sc2c(c1C)C(c1ccc(Cl)cc1)=N[C@@H](CC(=O)N[C@H]1C[C@H](Oc3ccc(CC(=O)N[C@H](C(=O)N4C[C@H](O)C[C@H]4C(=O)N[C@@H](C)c4ccc(-c5cnnn5C)cc4)C(C)(C)C)cc3)C1)c1nnc(C)n1-2` [Example 250], the Emax was determined as 16.1% and the DC50 is above 1 µM.
Taken in the same sequence, the figures for `CC(=O)N[C@H](C(=O)N1C[C@H](O)C[C@H]1C(=O)NCc1ccc(-c2scnc2C)cc1OCCCOc1ccc(C2=N[C@@H](CC(=O)Nc3ccccc3)c3nnc(C)n3-c3sc(C)c(C)c32)cc1)C(C)(C)C` [Example 155] were 65.5% and 0.1 to 1 µM.
For the compound `Cc1ncsc1-c1ccc(CNC(=O)[C@@H]2C[C@@H](O)CN2C(=O)[C@@H](NC(=O)COCCCOCCCCCOc2ccc3c(c2)c2c(C(N)=O)cc(-c4c(C)noc4C)cc2n3Cc2ccccc2)C(C)(C)C)cc1` [Example 143, 9-benzyl-2-(dimethyl-1,2-oxazol-4-yl)-6-({5-[3-({[(2S)-1-[(2S,4R)-4-hydroxy-2-({[4-(4-methyl-1,3-thiazol-5-yl)phenyl]methyl}carbamoyl)pyrrolidin-1-yl]-3,3-dimethyl-1-oxobutan-2-yl]carbamoyl}methoxy)propoxy]pentyl}oxy)-9H-carbazole-4-carboxamide], the Emax was 100% and the DC50 is below 0.01 µM.
Taken in the same sequence, the figures for `Cc1ncsc1-c1ccc([C@H](C)NC(=O)[C@@H]2C[C@@H](O)CN2C(=O)[C@H](NC(=O)CN2CCC(O[C@H]3C[C@H](NC(=O)C[C@@H]4N=C(c5ccc(Cl)cc5)c5c(sc(C)c5C)-n5c(C)nnc54)C3)CC2)C(C)(C)C)cc1` [Example 348] were 46% and above 1 µM.
Taken in the same sequence, the figures for `Cc1ncsc1-c1ccc(CNC(=O)[C@@H]2C[C@@H](O)CN2C(=O)[C@@H](NC(=O)COCCCOc2ccc(-c3cnc(NC(=O)C[C@@H]4N=C(c5ccc(Cl)cc5)c5c(sc(C)c5C)-n5c(C)nnc54)cn3)cc2)C(C)(C)C)cc1` [Example 21, (2S,4R)-1-[(2S)-2-(2-{3-[4-(5-{2-[(9S)-7-(4-chlorophenyl)-4,5,13-trimethyl-3-thia-1,8,11,12-tetraazatricyclo[8.3.0.0^2,^6]trideca-2(6),4,7,10,12-pentaen-9-yl]acetamido}pyrazin-2-yl)phenoxy]propoxy}acetamido)-3,3-dimethylbutanoyl]-4-hydroxy-N-{[4-(4-methyl-1,3-thiazol-5-yl)phenyl]methyl}pyrrolidine-2-carboxamide] were 91% and 0.01 to 0.1 µM.
Taken in the same sequence, the figures for `Cc1ncsc1-c1ccc(CNC(=O)[C@@H]2C[C@@H](O)CN2C(=O)[C@@H](NC(=O)COCCCCNC(=O)C[C@@H]2N=C(c3ccc(Cl)cc3)c3c(sc(C)c3C)-n3c(C)nnc32)C(C)(C)C)cc1` [Example 45, (2S,4R)-1-[(2S)-2-[2-(4-{2-[(9S)-7-(4-chlorophenyl)-4,5,13-trimethyl-3-thia-1,8,11,12-tetraazatricyclo[8.3.0.0^2,^6]trideca-2(6),4,7,10,12-pentaen-9-yl]acetamido}butoxy)acetamido]-3,3-dimethylbutanoyl]-4-hydroxy-N-{[4-(4-methyl-1,3-thiazol-5-yl)phenyl]methyl}pyrrolidine-2-carboxamide] were 100% and 0.1 to 1 µM.
As to `Cc1ncsc1-c1ccc(CNC(=O)[C@@H]2C[C@@H](O)CN2C(=O)[C@@H](NC(=O)COCCC[S+]([O-])CCNC(=O)C[C@@H]2N=C(c3ccc(Cl)cc3)c3c(sc(C)c3C)-n3c(C)nnc32)C(C)(C)C)cc1` (stereo partly shown) [Example 112], the Emax was 26.8% and the DC50 is above 1 µM.
Taken in the same sequence, the figures for `Cc1ncsc1-c1ccc([C@H](C)NC(=O)[C@@H]2C[C@@H](O)CN2C(=O)[C@@H](NC(=O)/C=C/c2cccc(O[C@H](C)CNC(=O)C[C@@H]3N=C(c4ccc(Cl)cc4)c4c(sc(C)c4C)-n4c(C)nnc43)c2)C(C)(C)C)cc1` [Example 159] were 96.5% and below 0.01 µM.
`Cc1ncsc1-c1ccc(CNC(=O)[C@@H]2C[C@@H](O)CN2C(=O)[C@@H](NC(=O)COCC#CC#CCOc2ccc([C@@H](C)NC(=O)C[C@@H]3N=C(c4ccc(Cl)cc4)c4c(sc(C)c4C)-n4c(C)nnc43)cc2)C(C)(C)C)cc1` [Example 43, (2S,4R)-1-[(2S)-2-{2-[(6-{4-[(1R)-1-{2-[(9S)-7-(4-chlorophenyl)-4,5,13-trimethyl-3-thia-1,8,11,12-tetraazatricyclo[8.3.0.0^2,^6]trideca-2(6),4,7,10,12-pentaen-9-yl]acetamido}ethyl]phenoxy}hexa-2,4-diyn-1-yl)oxy]acetamido}-3,3-dimethylbutanoyl]-4-hydroxy-N-{[4-(4-methyl-1,3-thiazol-5-yl)phenyl]methyl}pyrrolidine-2-carboxamide]: the Emax was determined as 100% and the 50% degradation concentration (DC50) lay in the range of 0.01 to 0.1 µM.
Taken in the same sequence, the figures for `[2H]C([2H])([2H])C([C@H](NC(=O)c1cc2cc(O[C@H]3C[C@@H](NC(=O)C[C@@H]4N=C(c5ccc(Cl)cc5)c5c(sc(C)c5C)-n5c(C)nnc54)C3)ccc2o1)C(=O)N1C[C@H](O)C[C@H]1C(=O)N[C@@H](C)c1ccc(-c2scnc2C)cc1)(C([2H])([2H])[2H])C([2H])([2H])[2H]` [Example 364, (2S,4R)-1-[(2S)-3,3-bis(^2H3)methyl-2-({5-[(1,3-cis)-3-{2-[(9S)-7-(4-chlorophenyl)-4,5,13-trimethyl-3-thia-1,8,11,12-tetraazatricyclo[8.3.0.0^2,^6]trideca-2(6),4,7,10,12-pentaen-9-yl]acetamido}cyclobutoxy]-1-benzofuran-2-yl}formamido)(4,4,4-^2H3)butanoyl]-4-hydroxy-N-[(1S)-1-[4-(4-methyl-1,3-thiazol-5-yl)phenyl]ethyl]pyrrolidine-2-carboxamide] were 100% and below 0.01 µM.
Taken in the same sequence, the figures for `Cc1ncsc1-c1ccc([C@H](C)NC(=O)[C@@H]2C[C@@H](O)CN2C(=O)[C@@H](NC(=O)CN2CCN(C3CC4(C3)CN(C(=O)C[C@@H]3N=C(c5ccc(Cl)cc5)c5c(sc(C)c5C)-n5c(C)nnc53)C4)CC2)C(C)(C)C)cc1` [Example 360] were above 90% and 0.1 to 1 µM.
As for `Cc1ncsc1-c1ccc([C@H](C)NC(=O)[C@@H]2C[C@@H](O)CN2C(=O)[C@@H](NC(=O)CO[C@H]2C[C@H](OCCNC(=O)C[C@@H]3N=C(c4ccc(Cl)cc4)c4c(sc(C)c4C)-n4c(C)nnc43)C2)C(C)(C)C)cc1` [Example 256], the Emax is 89.5% and the DC50 is below 0.01 µM.
Taken in the same sequence, the figures for `Cc1ncsc1-c1ccc([C@H](C)NC(=O)[C@@H]2C[C@@H](O)CN2C(=O)[C@H](C(C)C)n2cc(-c3ccnc(N4CC[C@H](NC(=O)C[C@@H]5N=C(c6ccc(Cl)cc6)c6c(sc(C)c6C)-n6c(C)nnc65)C4)c3)cn2)cc1` [Example 264] were 97% and below 0.01 µM.
